From ChEMBL document CHEMBL5442219

Tests used:
Details in all cases: Compound concentration 10 µM
[1] = target: Muscarinic acetylcholine receptor M3 (Homo sapiens) (UniProt P20309)
[2] = target: Delta-type opioid receptor (Homo sapiens) (UniProt P41143)
[3] = target: D(1B) dopamine receptor (Homo sapiens) (UniProt P21918)
[4] = target: D(1A) dopamine receptor (Homo sapiens) (UniProt P21728)
[5] = target: T1, 5-hydroxytryptamine receptor 3A (Homo sapiens) (UniProt P46098)
T1 sequence (whole entry): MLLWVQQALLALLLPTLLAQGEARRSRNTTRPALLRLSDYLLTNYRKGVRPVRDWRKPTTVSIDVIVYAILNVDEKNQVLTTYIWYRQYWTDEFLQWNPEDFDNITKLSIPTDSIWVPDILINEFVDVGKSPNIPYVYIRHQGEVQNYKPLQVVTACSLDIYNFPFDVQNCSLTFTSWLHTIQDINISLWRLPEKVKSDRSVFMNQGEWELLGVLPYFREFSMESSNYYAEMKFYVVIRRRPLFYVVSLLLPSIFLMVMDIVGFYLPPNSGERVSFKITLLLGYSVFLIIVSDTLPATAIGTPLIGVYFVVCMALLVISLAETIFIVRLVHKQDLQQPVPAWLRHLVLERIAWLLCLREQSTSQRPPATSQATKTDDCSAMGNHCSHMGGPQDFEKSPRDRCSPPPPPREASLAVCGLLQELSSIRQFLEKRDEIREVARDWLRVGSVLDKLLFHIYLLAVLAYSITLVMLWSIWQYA

[6] = target: Kappa-type opioid receptor (Homo sapiens) (UniProt P41145)
[7] = target: Sigma intracellular receptor 2 (Homo sapiens) (UniProt Q5BJF2)
[8] = target: T2, Muscarinic acetylcholine receptor M2 (Homo sapiens) (UniProt P08172)
T2 sequence (whole entry): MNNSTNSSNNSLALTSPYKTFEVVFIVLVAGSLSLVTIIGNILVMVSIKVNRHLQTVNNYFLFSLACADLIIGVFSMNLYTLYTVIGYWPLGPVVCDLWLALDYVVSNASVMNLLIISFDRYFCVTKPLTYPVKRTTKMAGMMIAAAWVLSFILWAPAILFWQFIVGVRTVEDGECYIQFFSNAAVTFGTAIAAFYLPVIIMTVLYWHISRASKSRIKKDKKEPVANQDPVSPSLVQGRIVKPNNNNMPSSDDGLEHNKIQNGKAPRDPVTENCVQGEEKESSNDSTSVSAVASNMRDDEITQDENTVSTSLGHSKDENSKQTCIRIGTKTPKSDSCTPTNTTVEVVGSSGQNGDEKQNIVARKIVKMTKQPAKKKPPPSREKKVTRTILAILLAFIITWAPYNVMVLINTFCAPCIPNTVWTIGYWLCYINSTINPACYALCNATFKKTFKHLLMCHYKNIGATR

[9] = target: Histamine H3 receptor (Homo sapiens) (UniProt Q9Y5N1)
[10] = target: D(3) dopamine receptor (Homo sapiens) (UniProt P35462)
[11] = target: 5-hydroxytryptamine receptor 2A (Homo sapiens) (UniProt P28223)
[12] = target: 5-hydroxytryptamine receptor 2B (Homo sapiens) (UniProt P41595)
[13] = target: 5-hydroxytryptamine receptor 1D (Homo sapiens) (UniProt P28221)
[14] = target: Sodium-dependent dopamine transporter (Homo sapiens) (UniProt Q01959)
[15] = target: Sodium-dependent serotonin transporter (Homo sapiens) (UniProt P31645)
[16] = target: 5-hydroxytryptamine receptor 6 (Homo sapiens) (UniProt P50406)
[17] = target: T3, D(4) dopamine receptor (Homo sapiens) (UniProt P21917)
T3 sequence (whole entry): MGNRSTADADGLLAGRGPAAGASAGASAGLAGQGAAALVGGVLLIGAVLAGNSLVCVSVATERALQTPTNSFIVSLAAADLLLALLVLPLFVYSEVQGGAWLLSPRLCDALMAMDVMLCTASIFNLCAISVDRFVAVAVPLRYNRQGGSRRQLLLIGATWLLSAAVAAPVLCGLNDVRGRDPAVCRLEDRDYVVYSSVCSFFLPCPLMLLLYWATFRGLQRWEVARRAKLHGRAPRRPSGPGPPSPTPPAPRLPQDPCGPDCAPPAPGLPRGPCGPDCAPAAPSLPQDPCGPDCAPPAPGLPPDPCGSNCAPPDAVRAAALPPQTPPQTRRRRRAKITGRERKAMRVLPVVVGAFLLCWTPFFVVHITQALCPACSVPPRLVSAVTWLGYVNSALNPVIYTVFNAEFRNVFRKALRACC

[18] = target: Histamine H4 receptor (Homo sapiens) (UniProt Q9H3N8)
[19] = target: Beta-1 adrenergic receptor (Homo sapiens) (UniProt P08588)
Beta-1 adrenergic receptor (Homo sapiens), sequence (P08588 whole entry, looked up): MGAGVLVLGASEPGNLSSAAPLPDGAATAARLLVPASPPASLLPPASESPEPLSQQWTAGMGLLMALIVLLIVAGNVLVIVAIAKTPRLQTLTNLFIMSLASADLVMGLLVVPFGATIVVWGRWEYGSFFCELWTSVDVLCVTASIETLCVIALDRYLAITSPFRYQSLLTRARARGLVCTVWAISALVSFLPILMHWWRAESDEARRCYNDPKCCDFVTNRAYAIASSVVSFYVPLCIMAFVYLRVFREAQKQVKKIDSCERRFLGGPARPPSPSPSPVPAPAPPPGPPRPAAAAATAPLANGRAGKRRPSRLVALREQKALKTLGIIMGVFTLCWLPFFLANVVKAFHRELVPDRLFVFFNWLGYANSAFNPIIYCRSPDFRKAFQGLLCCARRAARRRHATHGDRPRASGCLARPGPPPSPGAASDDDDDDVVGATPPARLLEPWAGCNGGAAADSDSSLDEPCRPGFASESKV

Sodium-dependent dopamine transporter (Homo sapiens), sequence (Q01959 whole entry): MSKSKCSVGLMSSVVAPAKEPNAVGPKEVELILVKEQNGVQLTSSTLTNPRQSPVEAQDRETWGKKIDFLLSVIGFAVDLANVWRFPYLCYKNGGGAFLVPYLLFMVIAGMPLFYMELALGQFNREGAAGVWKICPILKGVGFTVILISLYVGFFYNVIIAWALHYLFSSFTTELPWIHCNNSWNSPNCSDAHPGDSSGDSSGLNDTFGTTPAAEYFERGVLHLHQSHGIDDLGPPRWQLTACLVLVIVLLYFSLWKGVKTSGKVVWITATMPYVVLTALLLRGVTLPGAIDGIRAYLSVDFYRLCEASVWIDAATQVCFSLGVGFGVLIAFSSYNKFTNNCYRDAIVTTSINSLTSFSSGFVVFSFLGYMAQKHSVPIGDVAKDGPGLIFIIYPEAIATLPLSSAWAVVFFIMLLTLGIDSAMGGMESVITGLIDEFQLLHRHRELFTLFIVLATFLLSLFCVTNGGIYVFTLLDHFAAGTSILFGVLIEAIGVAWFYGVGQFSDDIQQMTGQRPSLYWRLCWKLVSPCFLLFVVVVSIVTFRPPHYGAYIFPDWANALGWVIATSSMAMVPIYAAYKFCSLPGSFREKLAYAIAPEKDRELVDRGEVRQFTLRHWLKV
D(1B) dopamine receptor (Homo sapiens), sequence (P21918 whole entry): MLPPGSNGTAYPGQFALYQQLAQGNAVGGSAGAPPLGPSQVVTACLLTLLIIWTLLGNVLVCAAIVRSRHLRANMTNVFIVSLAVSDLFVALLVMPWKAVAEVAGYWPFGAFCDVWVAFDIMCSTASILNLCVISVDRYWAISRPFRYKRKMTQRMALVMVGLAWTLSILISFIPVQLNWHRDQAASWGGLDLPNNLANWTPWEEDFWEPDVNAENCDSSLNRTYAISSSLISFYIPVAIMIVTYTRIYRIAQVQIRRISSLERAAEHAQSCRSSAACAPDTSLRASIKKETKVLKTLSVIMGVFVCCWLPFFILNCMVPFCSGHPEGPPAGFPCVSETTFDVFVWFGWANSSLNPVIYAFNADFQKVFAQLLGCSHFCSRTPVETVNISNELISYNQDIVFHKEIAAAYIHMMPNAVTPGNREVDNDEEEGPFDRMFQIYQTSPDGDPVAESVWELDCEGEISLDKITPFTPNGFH
5-hydroxytryptamine receptor 2B (Homo sapiens), sequence (P41595 whole entry): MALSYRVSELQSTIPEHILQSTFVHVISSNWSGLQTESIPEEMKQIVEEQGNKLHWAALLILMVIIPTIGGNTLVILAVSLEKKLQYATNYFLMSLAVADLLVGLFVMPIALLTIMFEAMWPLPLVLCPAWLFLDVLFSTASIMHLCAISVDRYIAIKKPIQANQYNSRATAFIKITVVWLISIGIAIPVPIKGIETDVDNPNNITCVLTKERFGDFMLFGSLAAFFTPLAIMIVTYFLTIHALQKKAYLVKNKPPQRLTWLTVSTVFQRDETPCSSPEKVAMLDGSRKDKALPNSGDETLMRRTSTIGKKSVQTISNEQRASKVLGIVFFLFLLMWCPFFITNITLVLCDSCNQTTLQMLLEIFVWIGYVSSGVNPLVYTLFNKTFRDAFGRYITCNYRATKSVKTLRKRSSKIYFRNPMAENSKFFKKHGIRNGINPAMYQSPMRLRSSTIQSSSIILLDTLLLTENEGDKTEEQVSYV
5-hydroxytryptamine receptor 2A (Homo sapiens), sequence (P28223 whole entry): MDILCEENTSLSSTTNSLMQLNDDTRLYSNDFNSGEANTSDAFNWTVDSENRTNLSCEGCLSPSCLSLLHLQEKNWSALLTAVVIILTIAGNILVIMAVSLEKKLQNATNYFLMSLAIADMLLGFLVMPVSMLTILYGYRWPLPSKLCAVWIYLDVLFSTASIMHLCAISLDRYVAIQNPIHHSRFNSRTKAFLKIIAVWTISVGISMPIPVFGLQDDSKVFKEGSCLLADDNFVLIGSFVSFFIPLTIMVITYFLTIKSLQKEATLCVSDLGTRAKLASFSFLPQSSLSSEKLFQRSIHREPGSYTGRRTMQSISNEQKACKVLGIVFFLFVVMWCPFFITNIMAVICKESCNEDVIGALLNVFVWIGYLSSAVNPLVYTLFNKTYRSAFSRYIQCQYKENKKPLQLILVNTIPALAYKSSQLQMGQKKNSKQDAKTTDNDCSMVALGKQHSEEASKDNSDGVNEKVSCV
Histamine H3 receptor (Homo sapiens), sequence (Q9Y5N1 whole entry): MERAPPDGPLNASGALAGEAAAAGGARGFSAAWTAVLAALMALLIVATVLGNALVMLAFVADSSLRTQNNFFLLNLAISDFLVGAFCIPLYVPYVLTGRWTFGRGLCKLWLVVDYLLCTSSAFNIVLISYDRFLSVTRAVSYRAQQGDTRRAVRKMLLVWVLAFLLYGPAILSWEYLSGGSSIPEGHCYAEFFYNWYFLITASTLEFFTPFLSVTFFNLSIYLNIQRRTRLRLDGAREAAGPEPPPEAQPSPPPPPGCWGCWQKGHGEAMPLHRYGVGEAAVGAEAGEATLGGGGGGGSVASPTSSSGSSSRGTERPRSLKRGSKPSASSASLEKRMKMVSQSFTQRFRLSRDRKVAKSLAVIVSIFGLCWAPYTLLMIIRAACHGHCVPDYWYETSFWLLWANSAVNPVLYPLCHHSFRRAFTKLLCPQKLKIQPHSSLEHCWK
Kappa-type opioid receptor (Homo sapiens), sequence (P41145 whole entry): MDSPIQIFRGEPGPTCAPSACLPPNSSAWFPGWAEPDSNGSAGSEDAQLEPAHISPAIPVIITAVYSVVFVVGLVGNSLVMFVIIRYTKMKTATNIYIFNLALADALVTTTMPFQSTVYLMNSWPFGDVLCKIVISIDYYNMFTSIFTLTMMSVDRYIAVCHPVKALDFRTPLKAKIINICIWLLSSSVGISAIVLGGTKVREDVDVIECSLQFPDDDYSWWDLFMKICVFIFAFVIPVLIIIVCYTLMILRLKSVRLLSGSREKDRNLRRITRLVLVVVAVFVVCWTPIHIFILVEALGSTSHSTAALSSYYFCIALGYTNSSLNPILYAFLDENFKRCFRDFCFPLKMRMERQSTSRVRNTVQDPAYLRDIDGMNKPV
5-hydroxytryptamine receptor 1D (Homo sapiens), sequence (P28221 whole entry): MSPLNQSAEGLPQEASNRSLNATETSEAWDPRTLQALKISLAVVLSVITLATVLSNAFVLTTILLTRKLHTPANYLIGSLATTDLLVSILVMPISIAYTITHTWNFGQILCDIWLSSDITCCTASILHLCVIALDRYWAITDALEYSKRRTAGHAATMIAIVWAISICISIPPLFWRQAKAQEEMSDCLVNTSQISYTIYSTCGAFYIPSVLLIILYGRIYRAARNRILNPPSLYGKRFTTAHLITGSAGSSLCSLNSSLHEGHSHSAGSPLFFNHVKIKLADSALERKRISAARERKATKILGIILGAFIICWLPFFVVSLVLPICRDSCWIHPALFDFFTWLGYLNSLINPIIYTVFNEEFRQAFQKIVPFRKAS
Delta-type opioid receptor (Homo sapiens), sequence (P41143 whole entry): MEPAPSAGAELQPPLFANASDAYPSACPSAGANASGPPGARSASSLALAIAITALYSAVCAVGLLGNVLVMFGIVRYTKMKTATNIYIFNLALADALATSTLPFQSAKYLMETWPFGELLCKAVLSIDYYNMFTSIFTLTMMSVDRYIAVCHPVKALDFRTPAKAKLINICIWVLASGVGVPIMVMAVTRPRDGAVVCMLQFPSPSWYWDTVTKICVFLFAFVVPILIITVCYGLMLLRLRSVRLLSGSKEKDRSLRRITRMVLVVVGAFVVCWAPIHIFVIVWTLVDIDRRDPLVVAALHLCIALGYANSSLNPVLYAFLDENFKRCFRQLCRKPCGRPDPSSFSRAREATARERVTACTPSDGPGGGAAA
5-hydroxytryptamine receptor 6 (Homo sapiens), sequence (P50406 whole entry): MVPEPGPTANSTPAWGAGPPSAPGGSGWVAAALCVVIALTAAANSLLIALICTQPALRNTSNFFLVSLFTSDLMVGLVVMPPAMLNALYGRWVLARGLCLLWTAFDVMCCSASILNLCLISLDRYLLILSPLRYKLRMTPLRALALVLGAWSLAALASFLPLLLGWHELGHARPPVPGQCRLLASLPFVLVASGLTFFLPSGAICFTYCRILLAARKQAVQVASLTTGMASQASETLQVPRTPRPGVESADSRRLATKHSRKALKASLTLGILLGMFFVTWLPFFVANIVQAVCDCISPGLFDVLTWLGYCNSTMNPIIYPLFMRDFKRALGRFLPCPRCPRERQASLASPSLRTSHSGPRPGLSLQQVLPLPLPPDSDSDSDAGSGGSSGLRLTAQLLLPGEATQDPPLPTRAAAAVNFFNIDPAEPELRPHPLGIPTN
Sigma intracellular receptor 2 (Homo sapiens), sequence (Q5BJF2 whole entry): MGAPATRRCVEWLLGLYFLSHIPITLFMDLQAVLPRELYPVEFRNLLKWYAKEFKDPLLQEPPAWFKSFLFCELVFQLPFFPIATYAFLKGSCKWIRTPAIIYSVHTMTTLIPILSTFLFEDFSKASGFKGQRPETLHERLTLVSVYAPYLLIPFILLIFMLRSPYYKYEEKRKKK

| Compound | inhibition [1] | inhibition [2] | inhibition [3] | inhibition [4] | inhibition [5] | inhibition [6] | inhibition [7] | inhibition [8] | inhibition [9] | inhibition [10] | inhibition [11] | inhibition [12] | inhibition [13] | inhibition [14] | inhibition [15] | inhibition [16] | inhibition [17] | inhibition [18] | inhibition [19] |
| --- | --- | --- | --- | --- | --- | --- | --- | --- | --- | --- | --- | --- | --- | --- | --- | --- | --- | --- | --- |
| CC(C)NCC(O)COc1ccc(CCOCC2CC2)cc1 (stereo not given) | 1.59% | 3.69% | 6.71% | 1.75% | -0.24% | 20.5% | 76.2% | -4.15% | 28.3% | 5.81% | 8.23% | 32.1% | 5.07% | 27.9% | -2.29% | -5.1% | – | – | – |
| COc1cccc([C@H](O)C2CCN(CCc3ccc(F)cc3)CC2)c1OC | -8.67% | 4.4% | 4.09% | 63.9% | 9.53% | – | 95.9% | 1.5% | 3.17% | 9.18% | – | 89.1% | 73.8% | 15.6% | 27.2% | 5.14% | 43.9% | 3.4% | 32.2% |
| COC(=O)C1=C(C)NC(C)=C(C(=O)OCCCN2CCC(c3ccccc3)(c3ccccc3)CC2)[C@H]1c1cccc([N+](=O)[O-])c1 | 61.2% | 94.1% | 51.8% | 80.7% | 43.2% | 95.6% | 98.7% | 40.4% | 62.2% | 81.8% | -1.08% | 83.2% | 75.9% | 89.7% | 85.7% | 71.6% | 41.5% | 27.4% | 31.8% |
| O=S1(=O)c2cccc3cccc(c23)N1CCCN1CCN(c2ccc(F)cc2)CC1 | 1.23% | 8.66% | -1.71% | 59.8% | 32.9% | 56% | 96.9% | 10.3% | 45.5% | 58.5% | 103% | 93.9% | – | 75.8% | 81.7% | 52.9% | 108% | 5.54% | 8.94% |
| S=C(NCCCc1c[nH]cn1)NCCCN(Cc1ccc(Cl)c(Cl)c1)c1ccc(Br)cn1 | 48.4% | 27% | 51.4% | 61.5% | 33.5% | 64.9% | 97.7% | – | 100% | 62.3% | 85.2% | 94.5% | 149% | 94.8% | 95% | 74% | 40.9% | 99.3% | 49.2% |
| O=C(c1cc2c(cc1F)OC(c1ccc(F)cc1)(c1ccc(Cl)cc1Cl)O2)N1CCOCC1 (stereo not given) | -9.02% | 24.5% | 75.9% | 48% | 1.36% | 71.4% | 72.4% | – | 21% | 27.4% | 57.3% | 85.6% | 20.9% | 59% | 15.9% | -8.59% | 29.6% | 32.4% | 8.99% |
| Oc1ccc2c3c1O[C@H]1c4[nH]c5c(c4C[C@@]4(O)[C@@H](C2)N(CC2CC2)CC[C@]314)C[C@@]1(O)[C@H]2Cc3ccc(O)c4c3[C@@]1(CCN2CC1CC1)[C@H]5O4 | 3.43% | 93.5% | -8.61% | 33.5% | 6.54% | 105% | 30.2% | 0.51% | 6.5% | 4.68% | 18.3% | 14.2% | – | -4.44% | -6.45% | 11.4% | 14.9% | 1.48% | 1.77% |
| O=C(Cc1ccc(Cl)c(Cl)c1)N1CCCC[C@H]1CN1CCCC1 | – | 17.6% | -9.99% | – | 5.92% | 99.7% | 92.3% | 12% | 37.3% | 18.5% | 6.03% | 35.7% | 14.8% | 52.7% | 33.9% | -5.65% | 79.7% | -9.98% | -3.57% |
| Cc1nc2sccn2c(=O)c1CCN1CCC(=C(c2ccc(F)cc2)c2ccc(F)cc2)CC1 | 6.1% | 17.7% | 74.1% | 99.5% | 4.51% | 65.8% | 98.7% | 34.1% | 30.7% | 94.6% | 91% | 89.4% | – | 68.9% | 80.8% | 98.1% | 82.1% | 59% | 19% |
| OC1(c2ccc(Cl)cc2)CCN(Cc2c[nH]c3ccccc23)CC1 | -9.56% | 3.7% | 40.1% | 70.3% | -7.87% | 3.1% | 97.8% | – | – | 88.8% | 66.9% | 73.8% | 46.1% | 80% | 102% | -7.57% | 66.1% | 13.8% | 38.7% |
| C[C@@H](N)Cc1c[nH]cn1 | -7.33% | – | 24.8% | 14.2% | 5.88% | -2.45% | 20.2% | -5.01% | 103% | 8.41% | -2.41% | 35.1% | 6.42% | 3.36% | 6.49% | 2.58% | – | 95.7% | – |
| Cc1nc(-c2ccc(-c3ccc(C(=O)N4CCc5cc6c(cc54)C4(CCN(C)CC4)CO6)cc3)c(C)c2)no1 | 73% | -1.39% | 57.1% | 53.5% | 43.9% | – | 95.4% | 44.5% | 35.6% | 18.8% | 67.6% | 88.9% | 90.9% | 70.2% | 41% | -6.79% | 16.6% | 20.5% | -1.95% |
